Source: publication PMC9516332 (Frontiers in Oncology, 2022)
Read-outs that look alike come from different tables or passages of the source.

Assays:
[1] = test system: AP-1060 (ETV6-NTRK3); assay: Cell viability assay; conditions: read-out: IC50 in cell proliferation assay
[2] = test system: 134 cancer cell lines; assay: Cell viability assay (ATPlite, 72 hours), IC50 on cancer cell line panel

Structure (SMILES): CC(=O)Nc1cccc(-n2c(=O)n(C3CC3)c(=O)c3c(Nc4ccc(I)cc4F)n(C)c(=O)c(C)c32)c1 [trametinib]
- IC50 [1]: 291 nM
- IC50 ([2]; HEC-6, read-out: IC50 in cell proliferation assay, HEC-6 cell line (EGFR p.A289V)): > 31600 nM
- IC50 ([2]; Homo sapiens, 769-P, read-out: IC50 in cell proliferation assay, cell line 769-P): 95 nM
- IC50 ([2]; Homo sapiens, 786-0, read-out: IC50 in cell proliferation assay, cell line 786-O): 42 nM
- IC50 ([2]; Homo sapiens, A 172, read-out: IC50 in cell proliferation assay, cell line A-172): 235 nM
- IC50 ([2]; Homo sapiens, A204, read-out: IC50 in cell proliferation assay, cell line A-204): 1230 nM
- IC50 ([2]; Homo sapiens, A498, read-out: IC50 in cell proliferation assay, cell line A-498): 13800 nM
- IC50 ([2]; Homo sapiens, A549, read-out: IC50 in cell proliferation assay, cell line A-549): 8 nM
- IC50 ([2]; Homo sapiens, A704, read-out: IC50 in cell proliferation assay, cell line A-704): > 28200 nM
- IC50 ([2]; Homo sapiens, A-375, read-out: IC50 in cell proliferation assay, cell line A-375 (BRAF p.V600E)): 5 nM
- IC50 ([2]; Homo sapiens, A-427, read-out: IC50 in cell proliferation assay, cell line A-427): 2.13 nM
- IC50 ([2]; Homo sapiens, ACHN, read-out: IC50 in cell proliferation assay, cell line ACHN): 6 nM
- IC50 ([2]; Homo sapiens, AN3-CA, read-out: IC50 in cell proliferation assay, cell line AN3-CA (FGFR2 p.N549K)): 50 nM
- IC50 ([2]; Homo sapiens, ASPC1, read-out: IC50 in cell proliferation assay, cell line AsPC-1): 14 nM
- IC50 ([2]; Homo sapiens, AU565, read-out: IC50 in cell proliferation assay, cell line AU565 (ERBB2 amplification)): > 28200 nM
- IC50 ([2]; Homo sapiens, BT-20, read-out: IC50 in cell proliferation assay, cell line BT-20): > 28200 nM
- IC50 ([2]; Homo sapiens, BT-474, read-out: IC50 in cell proliferation assay, cell line BT-474 (ERBB2 amplification)): > 31600 nM
- IC50 ([2]; Homo sapiens, BT-549, read-out: IC50 in cell proliferation assay, cell line BT-549): 314 nM
- IC50 ([2]; Homo sapiens, BXPC-3, read-out: IC50 in cell proliferation assay, cell line BxPC-3): 38 nM
- IC50 ([2]; Homo sapiens, C-33-A, read-out: IC50 in cell proliferation assay, cell line C-33 A): 4.42 nM
- IC50 ([2]; Homo sapiens, CAL-27, read-out: IC50 in cell proliferation assay, cell line CAL-27): 11 nM
- IC50 ([2]; Homo sapiens, CCF-STTG1, read-out: IC50 in cell proliferation assay, cell line CCF-STTG1): > 28200 nM
- IC50 ([2]; Homo sapiens, CCRF-CEM, read-out: IC50 in cell proliferation assay, cell line CCRF-CEM): > 28200 nM
- IC50 ([2]; Homo sapiens, COLO 205, read-out: IC50 in cell proliferation assay, cell line COLO 205 (BRAF p.V600E)): 4 nM
- IC50 ([2]; Homo sapiens, COLO-829, read-out: IC50 in cell proliferation assay, cell line COLO 829 (BRAF p.V600E)): 16 nM
- IC50 ([2]; Homo sapiens, DLD-1, read-out: IC50 in cell proliferation assay, cell line DLD-1): 507 nM
- IC50 ([2]; Homo sapiens, DU-4475, read-out: IC50 in cell proliferation assay, cell line DU4475 (BRAF p.V600E)): 10 nM
- IC50 ([2]; Homo sapiens, Daoy, read-out: IC50 in cell proliferation assay, cell line Daoy): 427 nM
- IC50 ([2]; Homo sapiens, DoTc2-4510, read-out: IC50 in cell proliferation assay, cell line DoTc2 4510): 8 nM
- IC50 ([2]; Homo sapiens, EOL1, read-out: IC50 in cell proliferation assay, cell line EoL-1 (FIP1L1-PDGFRA)): 8 nM
- IC50 ([2]; Homo sapiens, FaDu, read-out: IC50 in cell proliferation assay, cell line FaDu): 19 nM
- IC50 ([2]; Homo sapiens, G-361, read-out: IC50 in cell proliferation assay, cell line G-361 (BRAF p.V600E)): 5.46 nM
- IC50 ([2]; Homo sapiens, HCC827, read-out: IC50 in cell proliferation assay, cell line HCC827 (EGFR exon19del)): 151 nM
- IC50 ([2]; Homo sapiens, HCC4006, read-out: IC50 in cell proliferation assay, cell line HCC4006 (EGFR exon19del)): 808 nM
- IC50 ([2]; Homo sapiens, HCT-15, read-out: IC50 in cell proliferation assay, cell line HCT 15): 1740 nM
- IC50 ([2]; Homo sapiens, HCT-116, read-out: IC50 in cell proliferation assay, cell line HCT 116): 29 nM
- IC50 ([2]; Homo sapiens, HEC-1, read-out: IC50 in cell proliferation assay, HEC-1 cell line): 330 nM
- IC50 ([2]; Homo sapiens, HEC-1B, read-out: IC50 in cell proliferation assay, HEC-1-B cell line (EGFR p.A864V)): 6.36 nM
- IC50 ([2]; Homo sapiens, HL-60, read-out: IC50 in cell proliferation assay, HL-60 cell line): 1 nM
- IC50 ([2]; Homo sapiens, HT, read-out: IC50 in cell proliferation assay, HT cell line): > 28200 nM
- IC50 ([2]; Homo sapiens, HT-1080, read-out: IC50 in cell proliferation assay, HT-1080 cell line): 28 nM
- IC50 ([2]; Homo sapiens, Hs746T, read-out: IC50 in cell proliferation assay, Hs 746.T cell line (MET exon14skip + amplification)): 82 nM
- IC50 ([2]; Homo sapiens, Hs-578T, read-out: IC50 in cell proliferation assay, Hs 578T cell line): 211 nM
- IC50 ([2]; Homo sapiens, HuTu80, read-out: IC50 in cell proliferation assay, HuTu 80 cell line): 129 nM
- IC50 ([2]; Homo sapiens, J82, read-out: IC50 in cell proliferation assay, J82 cell line): > 28200 nM
- IC50 ([2]; Homo sapiens, Jurkat E6.1, read-out: IC50 in cell proliferation assay, Jurkat E6.1 cell line): > 28200 nM
- IC50 ([2]; Homo sapiens, K562, read-out: IC50 in cell proliferation assay, K-562 cell line): 22 nM
- IC50 ([2]; Homo sapiens, KATO III, read-out: IC50 in cell proliferation assay, KATO III cell line (FGFR2 amplification)): 142 nM
- IC50 ([2]; Homo sapiens, KG-1, read-out: IC50 in cell proliferation assay, KG-1 cell line (FGFR1OP2-FGFR1)): 9 nM
- IC50 ([2]; Homo sapiens, KLE, read-out: IC50 in cell proliferation assay, KLE cell line): > 28200 nM
- IC50 ([2]; Homo sapiens, KMS-11, read-out: IC50 in cell proliferation assay, KMS-11 cell line (FGFR3 p.Y373C)): > 31600 nM
- IC50 ([2]; Homo sapiens, KU812, read-out: IC50 in cell proliferation assay, Ku812 cell line): 13 nM
- IC50 ([2]; Homo sapiens, Kasumi 1, read-out: IC50 in cell proliferation assay, Kasumi-1 cell line (KIT p.N822K)): 29 nM
- IC50 ([2]; Homo sapiens, LC-2-ad, read-out: IC50 in cell proliferation assay, LC-2/ad cell line (CCDC6-RET)): 167 nM
- IC50 ([2]; Homo sapiens, LNCaP-Clone-FGC, read-out: IC50 in cell proliferation assay, LNCaP clone FGC cell line): > 28200 nM
- IC50 ([2]; Homo sapiens, LS174T, read-out: IC50 in cell proliferation assay, LS174T cell line): 30 nM
- IC50 ([2]; Homo sapiens, LS-411N, read-out: IC50 in cell proliferation assay, LS411N cell line (BRAF p.V600E)): 9 nM
- IC50 ([2]; Homo sapiens, LoVo, read-out: IC50 in cell proliferation assay, LoVo cell line): 32 nM
- IC50 ([2]; Homo sapiens, MCF7, read-out: IC50 in cell proliferation assay, MCF-7 cell line): > 28200 nM
- IC50 ([2]; Homo sapiens, MDA-MB-231, read-out: IC50 in cell proliferation assay, MDA-MB-231 cell line): 44 nM
- IC50 ([2]; Homo sapiens, MDA-MB-453, read-out: IC50 in cell proliferation assay, MDA-MB-453 cell line): 270 nM
- IC50 ([2]; Homo sapiens, MDA-MB-468, read-out: IC50 in cell proliferation assay, MDA-MB-468 cell line): 151 nM
- IC50 ([2]; Homo sapiens, MG-63, read-out: IC50 in cell proliferation assay, MG-63 cell line): 257 nM
- IC50 ([2]; Homo sapiens, MIA PaCa-2, read-out: IC50 in cell proliferation assay, MIA PaCa-2 cell line): 33 nM
- IC50 ([2]; Homo sapiens, MKN-45, read-out: IC50 in cell proliferation assay, MKN45 cell line (MET amplification)): 83 nM
- IC50 ([2]; Homo sapiens, MOLM-13, read-out: IC50 in cell proliferation assay, MOLM-13 cell line (FLT3 ITD)): 34 nM
